Data taken from US11999727B2 (Tango Therapeutics, Inc., priority 2020, dated 2024).
Read-outs that look alike come from different tables or passages of the source.

Tests used:
PRMT5 [1] = biological target: T1, PRMT5 (Homo sapiens, UniProt O14744); assay: PRMT5 biochemical IC50 assay with SAM as cofactor; details: PRMT5, SAM as cofactor; read-out: SAM IC50
T1 construct: purchased Viva (custom protein)

PRMT5 [2] = biological target: T1, PRMT5; assay: PRMT5 biochemical IC50 assay with no cofactor; details: PRMT5, no cofactor; read-out: No Cofactor/rel IC50
Description: Table 1 indicates IC50 values (μM) against PRMT5 for exemplary compounds in the presence of SAM as cofactor, with no cofactor, and with MTA as cofactor, respectively (columns 4-6). […] Ki values can be calculated from the IC50 values as described in the Examples section. As detailed in the Examples section, for the assay performed in the presence of SAM, IC50=Ki×1.5 (Ki=IC50/1.5).

PRMT5 [3] = biological target: T1, PRMT5; assay: PRMT5 biochemical IC50 assay with MTA as cofactor; details: PRMT5, MTA as cofactor; read-out: MTA IC50
[4] = test system: HAP1 MTAP-intact cell line; assay: SDMA in-cell western assay, HAP1 MTAP-intact; type: cell-based; details: Homo sapiens
In short: (§1)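 IC50 values come from SDMA signal quantified by in-cell western in two HAP1 lines, one with native MTAP levels and one lacking MTAP.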

[5] = test system: HAP1 MTAP-deleted cell line; assay: SDMA in-cell western assay, HAP1 MTAP-deleted; type: cell-based; details: for IC50: Homo sapiens; for MTAP intact/deleted ratio: IC50 ratio HAP1 MTAP-intact / HAP1 MTAP-deleted, SDMA in-cell western
In short: as §1

[6] = test system: HAP1 MTAP-deleted cell line; assay: Viability assay, MTAP-deleted cell line; type: cell-based; details: Homo sapiens
Description: Table 1 additionally indicates IC50 values in a viability assay for the MTAP-deleted cell line (column 10), indicating the effect of treatment with compound on cell survival.

[7] = HAP1, SDMA in-cell western, HAP1 MTAP-intact, read-out: MTAP HAP1 intact IC50
[8] = HAP1, SDMA in-cell western, HAP1 MTAP-deleted, read-out: HAP1 MTAP deleted IC50
[9] = HAP1, viability assay, MTAP-deleted cell line, read-out: HAP1 MTAP deleted viability
[10] = HAP1, read-out: MTAP HAP1 intact IC50
[11] = HAP1, read-out: HAP1 MTAP deleted IC50
[12] = HAP1, read-out: HAP1 MTAP deleted viability

T1 sequence (O14744 whole entry): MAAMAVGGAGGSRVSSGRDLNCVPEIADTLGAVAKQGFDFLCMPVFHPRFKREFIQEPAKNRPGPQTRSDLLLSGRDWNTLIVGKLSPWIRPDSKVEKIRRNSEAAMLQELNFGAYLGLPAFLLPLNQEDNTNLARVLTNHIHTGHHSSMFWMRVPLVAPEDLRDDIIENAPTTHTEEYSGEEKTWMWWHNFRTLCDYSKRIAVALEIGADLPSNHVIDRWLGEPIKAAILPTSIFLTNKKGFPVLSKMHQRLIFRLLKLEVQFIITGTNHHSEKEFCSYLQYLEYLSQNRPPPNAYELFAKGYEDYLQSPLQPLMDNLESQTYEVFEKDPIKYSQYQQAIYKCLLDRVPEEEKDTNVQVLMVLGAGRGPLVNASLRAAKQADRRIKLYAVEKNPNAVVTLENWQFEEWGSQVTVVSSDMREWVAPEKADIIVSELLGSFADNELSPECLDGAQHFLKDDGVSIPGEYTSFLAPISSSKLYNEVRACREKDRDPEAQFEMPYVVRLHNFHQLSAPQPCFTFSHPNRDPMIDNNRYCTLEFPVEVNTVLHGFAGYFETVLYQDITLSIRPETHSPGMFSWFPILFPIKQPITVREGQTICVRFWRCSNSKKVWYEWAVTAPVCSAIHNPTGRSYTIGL
T1 sequence (Q9BQA1 whole entry partner): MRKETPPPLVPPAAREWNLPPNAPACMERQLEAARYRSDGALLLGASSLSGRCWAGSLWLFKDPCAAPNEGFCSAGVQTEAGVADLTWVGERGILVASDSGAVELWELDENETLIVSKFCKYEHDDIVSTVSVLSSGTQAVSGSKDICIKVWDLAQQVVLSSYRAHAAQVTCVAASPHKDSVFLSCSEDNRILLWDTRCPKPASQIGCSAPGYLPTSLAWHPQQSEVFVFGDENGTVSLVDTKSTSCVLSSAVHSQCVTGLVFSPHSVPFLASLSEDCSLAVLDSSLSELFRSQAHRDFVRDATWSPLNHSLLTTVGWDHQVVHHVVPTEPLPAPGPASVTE

SMILES | IC50 (PRMT5 [1]) | IC50 (PRMT5 [2]) | IC50 (PRMT5 [3]) | IC50 [4, 7] | IC50 [5, 8] | MTAP intact/deleted ratio [5] | IC50 [6, 9] | IC50 [4, 10] | IC50 [5, 11] | IC50 [6, 12]
COc1ncc(NC(=O)C(=O)N2C[C@H](C)CC[C@H]2C2CCCC2)cc1C(N)=O (single isomer, unassigned) [Compound 306] | 0.05 to 0.5 µM | 0.05 to 0.5 µM | < 0.05 µM | > 1 µM | < 0.1 µM | A (an IC50 ratio greater than or equal to 10 fold) | 1 to 10 µM |  |  | 
COc1ncc(NC(=O)C(=O)N2C[C@H](C)CC[C@@H]2c2ccccc2)cc1C(N)=O (single isomer, unassigned) [Compound 308] | 0.05 to 0.5 µM | > 0.5 µM | < 0.05 µM |  |  | A (an IC50 ratio greater than or equal to 10 fold) |  | > 1 µM | 0.1 to 1 µM | > 10 µM
C[C@@H]1C[C@H](C)[C@@H](c2ccccc2)N(C(=O)C(=O)Nc2cncc(C(N)=O)c2)C1 (single isomer, unassigned) [Compound 311, 5-(2-(3,5-dimethyl-2-phenylpiperidin-1-yl)-2-oxoacetamido)nicotinamide] | 0.05 to 0.5 µM | 0.05 to 0.5 µM | < 0.05 µM | > 1 µM | 0.1 to 1 µM | A (an IC50 ratio greater than or equal to 10 fold) | > 10 µM |  |  | 
Cc1cc(NC(=O)C(=O)N2C[C@@H](C)[C@H](C)C[C@H]2c2ccccc2)cnc1N (single isomer, unassigned) [Compound 313] | 0.05 to 0.5 µM | 0.05 to 0.5 µM | < 0.05 µM | > 1 µM | < 0.1 µM | A (an IC50 ratio greater than or equal to 10 fold) | 1 to 10 µM |  |  | 
C[C@H]1CC[C@H](C2CCC(F)(F)CC2)N(C(=O)C(=O)Nc2cncc(C(N)=O)c2)C1 (single isomer, unassigned) [Compound 320] | 0.05 to 0.5 µM | > 0.5 µM | 0.05 to 0.5 µM | > 1 µM | > 1 µM | B (an IC50 ratio greater than or equal to 3 fold but lower than 10 fold) | > 10 µM |  |  | 
Cc1cc([C@@H]2CC[C@@H](C)CN2C(=O)C(=O)Nc2cncc(C(N)=O)c2)ccc1O (single isomer, unassigned) [Compound 323] | 0.05 to 0.5 µM | < 0.05 µM | < 0.05 µM | 0.1 to 1 µM | < 0.1 µM | A (an IC50 ratio greater than or equal to 10 fold) | < 1 µM |  |  | 
CC(=O)N1CCC(c2cccc([C@H]3CC[C@H](C)CN3C(=O)C(=O)Nc3cnc(N)c(C)c3)c2)CC1 (single isomer, unassigned) [Compound 324] | 0.05 to 0.5 µM | < 0.05 µM | < 0.05 µM | 0.1 to 1 µM | < 0.1 µM | A (an IC50 ratio greater than or equal to 10 fold) | < 1 µM |  |  | 
C[C@@H]1CC[C@@H](c2ccc3c(c2)C[C@@H](C)O3)N(C(=O)C(=O)Nc2cncc(C(N)=O)c2)C1 (single isomer, unassigned) [Compound 329] | 0.05 to 0.5 µM | 0.05 to 0.5 µM | < 0.05 µM | > 1 µM | < 0.1 µM | A (an IC50 ratio greater than or equal to 10 fold) | 1 to 10 µM |  |  | 
COc1ncc(NC(=O)C(=O)N2C[C@H](C)CC[C@H]2c2ccccc2)cc1C(N)=O (single isomer, unassigned) [Compound 333] | 0.05 to 0.5 µM | < 0.05 µM | < 0.05 µM |  |  | A (an IC50 ratio greater than or equal to 10 fold) |  | > 1 µM | < 0.1 µM | < 1 µM
CNc1cccc([C@@H]2CCCCN2C(=O)C(=O)Nc2cncc(C(N)=O)c2)c1 (single isomer, unassigned) [Compound 334] | 0.05 to 0.5 µM | 0.05 to 0.5 µM | < 0.05 µM | > 1 µM | < 0.1 µM | A (an IC50 ratio greater than or equal to 10 fold) | 1 to 10 µM |  |  | 
